From US8324263B2, “Microbiocidally active carboxamides” (Syngenta Crop Protection, LLC, priority 2007, dated 2012)

Experiments:
[1] = system: Botrytis cinerea; test: Action against Botrytis cinerea - fungal growth assay; format: cell-based; conditions: 0.002% active ingredient, PDB broth, 24° C., photometric after 3-4 days
Procedure: Conidia of the fungus from cryogenic storage are directly mixed into nutrient broth (PDB potato dextrose broth). After placing a (DMSO) solution of the test compounds (0.002% active ingredient) into a microtiter plate (96-well format) the nutrient broth containing the fungal spores is added.

melting point [°C] | SMILES | fungal growth inhibition [1] [%] | inhibition at 0.002 % strength ([1]; Botrytis cinerea) [%]
119 to 121 | Cc1cc(Br)cc(C)c1OCC(C)NC(=O)c1cn(C)nc1C(F)F (centres unmarked) [Compound 1.168, 3-difluoromethyl-1-methyl-1H-pyrazole-4-carboxylic acid [2-(4-bromo-2,6-dimethyl-phenoxy)-1-methyl-ethyl]-amide] |  | 
122 to 124 | CC(COc1c(Br)cc(Br)cc1Br)NC(=O)c1cn(C)nc1C(F)F (centres unmarked) [Compound 1.193, 3-difluoromethyl-1-methyl-1H-pyrazole-4-carboxylic acid [1-methyl-2-(2,4,6-tribromo-phenoxy)-ethyl]-amide] |  | 
 | Cn1cc(C(=O)NC2(COc3ccc(Cl)cc3)CC2)c(C(F)F)n1 [Compound 1.221] | 50 | 
115 to 118 | CC(COc1ncc(C(F)(F)F)cc1Cl)NC(=O)c1cn(C)nc1C(F)F (centres unmarked) [Compound 1.239, 3-difluoromethyl-1-methyl-1H-pyrazole-4-carboxylic acid [2-(3-chloro-5-trifluoromethyl-pyridin-2-yloxy)-1-methyl-ethyl]-amide] |  | 50
